Data taken from patent publication US20050101595A1, “N-containing cycloalkyl-substituted amino-thiazole derivatives and pharmaceutical compositions for inhibiting cell proliferation and methods for their use” (PFIZER INC., priority 2003, published 2005).

Assays:
[1] = target: human CDK4 and genetically truncated (1-264) cyclin D3 (Homo sapiens, UniProt P11802); test: Inhibition of CDK4/Cyclin D Retinoblastoma Kinase Activity; assay type: biochemical; conditions: 0.03 μM compound, Table 2
In short: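 Apparent Ki values come from competitive or competitive tight-binding inhibition fits of background-corrected 32P/33P incorporation into His-tagged Rb fragment (386-928), captured on nitrocellulose. Reaction: 5 nM insect-cell-expressed human CDK4 with cyclin D3 (1-264), 25 μM ATP, pH 7.4 HEPES, 2% DMSO, 30° C., 20 min, extended to 60 min for tight-binding inhibitors.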

HCT-116 cell line = test: Inhibition of cell growth, tetrazolium salt (MTT) assay; assay type: cell-based; conditions: 0.25 μM compound, HCT-116, Table 2
In short: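 Growth inhibition is scored relative to cells receiving only 0.5% (v/v) DMSO. Plated cells rest 4 h, then take compound for three to five days at 37° C; MTT reduction to formazan is read at 540 nm.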

CDK2/Cyclin A = CDK2/Cyclin A (Homo sapiens, UniProt P24941); test: Inhibition of CDK2/Cyclin A Retinoblastoma Kinase Activity; assay type: biochemical; conditions: 0.03 μM compound, Table 2
In short: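 Radiometric filter-binding readout of phosphate transfer to an Rb substrate fragment by purified CDK2/truncated cyclin A at 10 or 19 nM. Run at pH 7.4 with 25 μM ATP, 30 °C, 60–75 min, linear rates; background without enzyme subtracted, Ki from competitive-inhibition models.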

human CDK4 and genetically truncated (1-264) cyclin D3, sequence (P11802 whole entry, the tested form may be a part): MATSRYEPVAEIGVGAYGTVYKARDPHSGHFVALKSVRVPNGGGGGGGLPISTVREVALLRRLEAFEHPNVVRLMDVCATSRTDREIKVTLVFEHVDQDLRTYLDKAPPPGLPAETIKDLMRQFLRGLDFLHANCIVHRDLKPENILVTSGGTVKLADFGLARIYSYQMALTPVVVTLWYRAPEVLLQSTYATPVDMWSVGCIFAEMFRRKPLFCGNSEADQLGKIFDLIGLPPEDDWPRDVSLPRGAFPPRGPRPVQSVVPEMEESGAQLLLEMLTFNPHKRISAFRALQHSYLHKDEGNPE
human CDK4 and genetically truncated (1-264) cyclin D3, sequence (P30281 1-264 partner): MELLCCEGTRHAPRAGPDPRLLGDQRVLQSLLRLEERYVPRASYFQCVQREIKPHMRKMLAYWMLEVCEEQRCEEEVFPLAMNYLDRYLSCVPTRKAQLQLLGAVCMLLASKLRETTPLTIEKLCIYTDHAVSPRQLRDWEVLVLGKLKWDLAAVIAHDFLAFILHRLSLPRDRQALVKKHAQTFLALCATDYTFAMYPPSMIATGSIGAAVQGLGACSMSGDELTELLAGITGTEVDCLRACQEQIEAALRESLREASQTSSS

SMILES	CDK4 % Inhibition at 0.03 μM [1] [%]	CDK2 % Inhibition At 0.03 μM (CDK2/Cyclin A) [%]	CDK4 % Inhibition at 0.03 μM ([1]; 0.03 µM) [%]	CDK2 % Inhibition At 0.03 μM (CDK2/Cyclin A; 0.03 µM) [%]	HCT-116 % Inhibition at 0.25 μM (HCT-116 cell line) [%]	HCT-116 % Inhibition at 0.25 μM (HCT-116 cell line; 0.25 µM) [%]
CC(C)(C)NC(=O)N1CCC(Nc2nc(N)c(C(=O)c3c(F)cccc3F)s2)CC1 [Example O27]	9	38			24	
CC(NC(=O)N1CCC(Nc2nc(N)c(C(=O)c3c(F)cccc3F)s2)CC1)c1ccccc1 (stereo not drawn) [Example O28]			12	27		43
CC(C)NC(=O)N1CCC(Nc2nc(N)c(C(=O)c3c(F)cccc3F)s2)CC1 [Example O29]	10	30			33	
Nc1nc(NC2CCN(C(=O)NCCCl)CC2)sc1C(=O)c1c(F)cccc1F [Example O32]	12	30			99	
CCCNC(=O)N1CCC(Nc2nc(N)c(C(=O)c3c(F)cccc3F)s2)CC1 [Example O33]	−3	30			31	
Nc1nc(NC2CCN(C(=O)NC3CCCCC3)CC2)sc1C(=O)c1c(F)cccc1F [Example O34]	6	30			22	
Nc1nc(NC2CCN(C(=O)Nc3cccc4ccccc34)CC2)sc1C(=O)c1c(F)cccc1F [Example O35]	5	29			0	
Nc1nc(NC2CCN(C(=O)Nc3ccc([N+](=O)[O-])cc3)CC2)sc1C(=O)c1c(F)cccc1F [Example O36]	12	23			28	
CCOC(=O)NC(=O)N1CCC(Nc2nc(N)c(C(=O)c3c(F)cccc3F)s2)CC1 [Example O38]	15	29			29	
CC(C)c1ccccc1NC(=O)N1CCC(Nc2nc(N)c(C(=O)c3c(F)cccc3F)s2)CC1 [Example O40]	6	30			3	
Cc1ccc(C)c(NC(=O)N2CCC(Nc3nc(N)c(C(=O)c4c(F)cccc4F)s3)CC2)c1 [Example O42]	10	35			26	
COc1cc(NC(=O)N2CCC(Nc3nc(N)c(C(=O)c4c(F)cccc4F)s3)CC2)cc(OC)c1OC [Example O44]	12	22			29	

Continued, in another order:

CDK4 % Inhibition at 0.03 μM [1] [%]	CDK2 % Inhibition At 0.03 μM (CDK2/Cyclin A) [%]	CDK4 % Inhibition at 0.03 μM ([1]; 0.03 µM) [%]	CDK2 % Inhibition At 0.03 μM (CDK2/Cyclin A; 0.03 µM) [%]	SMILES	HCT-116 % Inhibition at 0.25 μM (HCT-116 cell line) [%]	HCT-116 % Inhibition at 0.25 μM (HCT-116 cell line; 0.25 µM) [%]
16	27			CCOC(=O)CNC(=O)N1CCC(Nc2nc(N)c(C(=O)c3c(F)cccc3F)s2)CC1 [Example O30]	31	
6	33			CCNC(=O)N1CCC(Nc2nc(N)c(C(=O)c3c(F)cccc3F)s2)CC1 [Example O31]	37	
12	40			Nc1nc(NC2CCN(C(=O)NCc3ccccc3)CC2)sc1C(=O)c1c(F)cccc1F [Example O37]	34	
13	32			COC(=O)c1ccccc1NC(=O)N1CCC(Nc2nc(N)c(C(=O)c3c(F)cccc3F)s2)CC1 [Example O39]	27	
1	33			Cc1ccc(NC(=O)N2CCC(Nc3nc(N)c(C(=O)c4c(F)cccc4F)s3)CC2)c(C)c1 [Example O41]	26	
10	31			N#Cc1cccc(NC(=O)N2CCC(Nc3nc(N)c(C(=O)c4c(F)cccc4F)s3)CC2)c1 [Example O43]	12	
